Test results: ChEMBL document CHEMBL6121069, “A Medicinal Chemistry Perspective on Protein Tyrosine Phosphatase Nonreceptor Type 2 in Tumor Immunology” (J Med Chem, 2025)
Blank lines part the entries; values can stand above or below the compound they belong to. *1 amine or outer side, *2 acyl side, *3 side chain or, on linkers, in order; H or OH if unused. Where a SMILES comes first, the peptide text is derived from it. [ ]: non-standard residue; d: D form. The star is where a group is joined. NHCH2(1,3-C6H4)CH2CO = O=C(Cc1cccc(CN[*:1])c1)[*:2]; F2Pmp = N[C@@H](Cc1ccc(C(F)(F)P(=O)(O)O)cc1)C(=O)O; Phenylacetyl(4-OH,3-OMe) = COc1cc(CC(=O)*)ccc1O; Benzoyl(3-Br,4-Me) = Cc1ccc(C(=O)*)cc1Br; X1 = Cc1ncsc1-c1ccc([C@H](C)N*)cc1; Hyp = O=C(O)[C@@H]1C[C@@H](O)CN1; Tle = CC(C)(C)[C@H](N)C(=O)O

Key:
[1] = target: T1, Tyrosine-protein phosphatase non-receptor type 2 (Homo sapiens, UniProt P17706)
T1 sequence (P17706 whole entry): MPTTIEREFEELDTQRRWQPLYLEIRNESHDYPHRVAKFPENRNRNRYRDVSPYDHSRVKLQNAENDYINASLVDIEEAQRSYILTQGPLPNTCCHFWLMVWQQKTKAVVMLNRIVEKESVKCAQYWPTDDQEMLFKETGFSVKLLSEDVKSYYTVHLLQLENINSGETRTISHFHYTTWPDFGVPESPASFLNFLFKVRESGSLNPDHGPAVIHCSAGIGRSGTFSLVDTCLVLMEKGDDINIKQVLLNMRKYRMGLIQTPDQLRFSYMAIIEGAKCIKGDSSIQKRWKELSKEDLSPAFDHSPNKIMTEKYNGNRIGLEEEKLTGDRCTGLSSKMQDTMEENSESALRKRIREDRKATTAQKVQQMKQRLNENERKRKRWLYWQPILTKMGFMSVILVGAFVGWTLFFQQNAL
Description: Inhibition of wild type FLAG-tagged PTPN2 (unknown origin) extracted from Escherichia coli BL21 (DE3) by micro-plate reader assay

[2] = target: T1, Tyrosine-protein phosphatase non-receptor type 2; remark: listed apart in the source
Description: Binding affinity to PTPN2 (unknown origin) assessed as inhibition constant

B16-F10 [3] = experiment: cells; details: Mus musculus
Description: Antiproliferative activity against mouse B16-F10 cells

[4] = target: T1, Tyrosine-protein phosphatase non-receptor type 2; remark: listed apart in the source
Description: Inhibition of full length human recombinant PTPN2 by mobility shift assay

[5] = target: T1, Tyrosine-protein phosphatase non-receptor type 2; remark: listed apart in the source
Description: Inhibition of PTPN2 (unknown origin)

B16-F10 [6] = experiment: cells; details: Mus musculus; remark: listed apart in the source
Description: Antiproliferative activity against mouse B16-F10 cells assessed as inhibition of cell growth

[7] = target: T1, Tyrosine-protein phosphatase non-receptor type 2; remark: listed apart in the source
Description: Inhibition of full length human recombinant PTPN2 using DiFMUP as substrate

[8] = target: T1, Tyrosine-protein phosphatase non-receptor type 2; remark: listed apart in the source
Description: Inhibition of full length human recombinant PTPN2 (1 to 387 residues)

[9] = target: T1, Tyrosine-protein phosphatase non-receptor type 2; remark: listed apart in the source
Description: Inhibition of human PTPN2 using DiFMUP as substrate by fluorescence based analysis

[10] = target: T2, Tyrosine-protein phosphatase non-receptor type 1 (Homo sapiens, UniProt P18031)
T2 sequence (P18031 whole entry): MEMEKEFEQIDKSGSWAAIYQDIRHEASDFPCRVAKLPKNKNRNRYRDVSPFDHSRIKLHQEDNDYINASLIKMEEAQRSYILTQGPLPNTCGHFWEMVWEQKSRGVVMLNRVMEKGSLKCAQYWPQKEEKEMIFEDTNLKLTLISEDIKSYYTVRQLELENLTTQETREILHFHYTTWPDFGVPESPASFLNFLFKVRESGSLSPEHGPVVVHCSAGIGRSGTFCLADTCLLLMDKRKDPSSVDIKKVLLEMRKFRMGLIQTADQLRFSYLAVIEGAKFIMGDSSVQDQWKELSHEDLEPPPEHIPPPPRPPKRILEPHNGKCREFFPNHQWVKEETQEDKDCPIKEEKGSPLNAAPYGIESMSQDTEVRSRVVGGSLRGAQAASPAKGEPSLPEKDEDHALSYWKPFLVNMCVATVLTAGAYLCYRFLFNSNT
Description: Inhibition of PTP1B (unknown origin) using para-nitrophenol phosphate substrate incubated for 30 mins by fluorescence based analysis

[11] = target: T2, Tyrosine-protein phosphatase non-receptor type 1; remark: listed apart in the source
Description: Binding affinity to PTP1B (unknown origin) assessed as inhibition constant

[12] = target: T1, Tyrosine-protein phosphatase non-receptor type 2; remark: listed apart in the source
Description: Inhibition of His-tagged PTPN2 (unknown origin) by mobility shift assay

[13] = target: T2, Tyrosine-protein phosphatase non-receptor type 1; remark: listed apart in the source
Description: Inhibition of full length His-tagged PTP1B (unknown origin) by mobility shift assay

[14] = target: T1, Tyrosine-protein phosphatase non-receptor type 2; remark: listed apart in the source
Description: Inhibition of PTPN2 (unknown origin) using DiFMUP as substrate incubated for 30 mins by fluorescence based analysis

[15] = target: Protein cereblon/Tyrosine-protein phosphatase non-receptor type 2 (Homo sapiens, UniProt P17706+Q96SW2); details: hek293t
Protein cereblon/Tyrosine-protein phosphatase non-receptor type 2, sequence (Q96SW2 whole entry, one chain of several): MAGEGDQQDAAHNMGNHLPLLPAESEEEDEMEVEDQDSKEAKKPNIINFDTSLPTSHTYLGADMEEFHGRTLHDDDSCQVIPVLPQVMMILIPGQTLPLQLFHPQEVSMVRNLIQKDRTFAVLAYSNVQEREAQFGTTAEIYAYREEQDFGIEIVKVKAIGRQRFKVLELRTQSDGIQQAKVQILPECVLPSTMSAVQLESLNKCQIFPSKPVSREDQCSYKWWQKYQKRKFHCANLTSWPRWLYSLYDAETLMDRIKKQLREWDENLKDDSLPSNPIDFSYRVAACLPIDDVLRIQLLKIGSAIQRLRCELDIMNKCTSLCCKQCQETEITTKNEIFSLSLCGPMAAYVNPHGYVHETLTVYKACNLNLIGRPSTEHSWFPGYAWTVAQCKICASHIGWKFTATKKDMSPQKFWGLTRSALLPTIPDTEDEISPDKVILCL
Description: PROTAC activity at PTPN2/CRBN in HEK293T cells assessed as protein degradation measured for 48 hrs by Western blot analysis

- IC50 [1]: 6.5 µM
SMILES: CCN(CN=O)c1ccc(O)c(O)c1

SMILES: O=C1CN(c2c(O)cc(NC3=NCCCN3)cc2F)S(=O)(=O)N1
- Ki [2]: 0.005 µM
- IC50 (B16-F10 [3]): < 5 µM

- IC50 [4]: 0.0152 µM
SMILES: O=C1CN(c2c(O)cc3c(c2F)CC(CNCCC(F)F)N3)S(=O)(=O)N1 (stereo unspecified)

SMILES: O=C1CN(c2c(O)cc3c(c2F)C[C@H](NCCCC(F)F)CC3)S(=O)(=O)N1
- IC50 [5]: < 0.001 µM
- IC50 [4]: < 0.0001 µM
- IC50 (B16-F10 [3]): < 0.05 µM

SMILES: O=C1CN(c2c(O)cc(CC3CCN(CC4CC4)C3)cc2F)S(=O)(=O)N1 (stereo unspecified)
- IC50 (B16-F10 [6]): 17.4 µM

SMILES: O=C1CN(c2c(O)cc(CC3CCCN(CC4CC4)C3)cc2F)S(=O)(=O)N1 (stereo unspecified)
- IC50 (B16-F10 [6]): > 46.4 µM

SMILES: Cc1cccc(NCc2cc(F)c(N3CC(=O)NS3(=O)=O)c3[nH]ncc23)n1
- IC50 [7]: 0.199 µM
- IC50 (B16-F10 [3]): > 15 µM

SMILES: CCCC1CCN(C2CCN(Cc3cc(O)c(N4CC(=O)NS4(=O)=O)c(F)c3)C2)C1 (stereo unspecified)
- IC50 [8]: 0.065 µM
- IC50 (B16-F10 [6]): 19.3 µM

SMILES: CC(C)CCNC(=O)Nc1cc(O)c(N2CC(=O)NS2(=O)=O)c(F)c1
- IC50 [5]: 0.005 µM
- IC50 (B16-F10 [3]): < 5 µM

SMILES: CC(C)Cc1cnc(Nc2cc(O)c(N3CC(=O)NS3(=O)=O)c(F)c2)nc1O
- Ki [2]: < 0.001 µM
- IC50 (B16-F10 [3]): 5 µM

- IC50 [9]: 0.0137 µM
- IC50 [10]: 0.132 µM
SMILES: C=C(C)C#COc1cc(C(N)=O)cc2c(Br)c(C(F)(F)P(=O)(O)O)sc12

SMILES: Cc1cnc(Nc2cc(O)c(N3CC(=O)NS3(=O)=O)c(F)c2)nc1O
- Ki [2]: < 0.001 µM
- IC50 (B16-F10 [3]): 50 µM

- Ki [11]: 0.17 µM
SMILES: CC(C)C[C@@H]1NC(=O)[C@H](Cc2ccc(OC(F)(C(=O)O)C(=O)O)cc2)NC(=O)[C@H](CCC(=O)O)NC(=O)[C@H](CC(=O)O)NC(=O)[C@H](C)NC(=O)[C@H](CC(=O)O)NC(=O)SC[C@H](C(N)=O)NC1=O

- IC50 [12]: 0.001 µM
- IC50 [13]: < 0.001 µM
SMILES: CC(C)CCNc1ccc2cc(O)c(N3CC(=O)NS3(=O)=O)c(F)c2c1

SMILES: CC(C)CCN1CCCC(Cc2cc(O)c(N3CC(=O)NS3(=O)=O)c(F)c2)C1 (stereo unspecified)
- IC50 (B16-F10 [6]): > 100 µM

- IC50 [14]: 0.28 µM
SMILES: NC(=O)c1cc2cc(Br)c(C(F)(F)P(=O)(O)O)cc2s1

SMILES: O=C1CN(c2c(O)cc(CC3CCNC3)cc2F)S(=O)(=O)N1 (stereo unspecified)
- IC50 (B16-F10 [6]): 7.43 µM

SMILES: CC(C)CC1CCN(C2CCN(Cc3cc(O)c(N4CC(=O)NS4(=O)=O)c(F)c3)C2)C1 (stereo unspecified)
- IC50 [8]: 0.066 µM
- IC50 (B16-F10 [6]): 8.44 µM

- DC50 [15]: < 0.01 µM
SMILES: Cn1c(=O)n(C2CCC(=O)NC2=O)c2ccc(C3CCN(C(=O)CNc4ccc5c(F)c(N6CC(=O)NS6(=O)=O)c(O)cc5c4)CC3F)cc21 (stereo unspecified)

SMILES: Cc1cc(O)nc(Nc2cc(O)c(N3CC(=O)NS3(=O)=O)c(F)c2)n1
- Ki [2]: 0.001 µM
- IC50 (B16-F10 [3]): < 5 µM

SMILES: O=C1CN(c2c(O)cc(CNc3ncc[nH]3)cc2F)S(=O)(=O)N1
- IC50 [7]: 0.01 µM
- IC50 (B16-F10 [3]): 0.16 µM

SMILES: Cn1ccnc1NCc1cc(O)c(N2CC(=O)NS2(=O)=O)c(F)c1
- IC50 [7]: 0.006 µM
- IC50 (B16-F10 [3]): 0.18 µM

SMILES: CN(Cc1cc(O)c(N2CC(=O)NS2(=O)=O)c(F)c1)C1CCC(C)(C)CC1
- IC50 [5]: 0.05 µM
- IC50 (B16-F10 [3]): 14.9 µM

- IC50 [4]: 0.00134 µM
SMILES: CC(C)CCN[C@@H]1CSc2cc(O)c(N3CC(=O)NS3(=O)=O)c(F)c2C1

- IC50 [12]: 0.00058 µM
- IC50 [13]: 0.00063 µM
SMILES: CC(C)CCOc1ccc2cc(O)c(N3CC(=O)NS3(=O)=O)c(F)c2c1

SMILES: O=C1CN(c2c(O)cc(NC(=O)N[C@H](CO)c3ccccc3)cc2F)S(=O)(=O)N1 (racemic)
- IC50 [5]: 0.005 µM
- IC50 (B16-F10 [3]): < 5 µM

SMILES: COc1cc(CC(=O)N[C@@H](Cc2ccccc2)C(=O)N[C@@H](Cc2ccc(C(F)(F)P(=O)(O)O)cc2)C(=O)N[C@@H](CCCCNC(=O)c2ccc(C)c(Br)c2)C(=O)NCc2cccc(CC(=O)N[C@H](C(=O)N3C[C@H](O)C[C@H]3C(=O)N[C@@H](C)c3ccc(-c4scnc4C)cc3)C(C)(C)C)c2)ccc1O ({Phenylacetyl(4-OH,3-OMe)}-F[F2Pmp]K(Benzoyl(3-Br,4-Me))[NHCH2(1,3-C6H4)CH2CO][Tle][Hyp]-X1)
- DC50 [15]: 0.0048 µM

- IC50 [12]: 0.001 µM
- IC50 [13]: 0.001 µM
SMILES: COc1ccc2cc(O)c(N3CC(=O)NS3(=O)=O)c(F)c2c1 [TEGEPROTAFIB]
